# Measurements as given in US5922727A, “Antiviral substituted pyrimidinedione homocarbocyclic nucleoside derivatives and methods for the preparation thereof and compositions containing the same as active ingredients” (Samjin Pharmaceutical Co., Ltd, priority 1996, dated 1999).
# Where two headings read alike, the source gives them in different places.
# Assays:
# [1] = tested on: HIV; assay type: cell-based; conditions: ratio CD50/ED50
# Procedure: (§1) The anti-HIV assays were based on the inhibition of the virus-induced cytopathic effect in MT-4 cells as a described method in J. Med. Chem, 34, 357, 1991. Briefly, MT-4 cells were suspended in culture medium at 2.5×10^5 cells/ml and infected with 1000 CCID50 (50% cell culture infective dose) of HIV. Immediately, after virus infection, 100 μl of the cell suspension was brought into each well of a flat-bottomedmicrotitray containing various concentrations of the test compounds. After a 4 or 5 days incubation at 37° C., the number of viable cells was determined by the 3-(4,5-dimethylthiazol-2-yl)-2,5-diphenyltetrazolium bromide (MTT) method, as disclosed in J. Virol. Methods, 20, 309, 1988. The cytotoxicity of the compounds of the present invention was assessed in parallel with their antiviral activity. It was based on the viability of mock-infected host cells as determined by the MTT methods.
# [2] = tested on: MT-4 cells; test: cytotoxicity: viability of mock-infected MT-4 host cells (MTT method); assay type: cell-based; set-up: unit not given here; conditions: mock-infected MT-4 cells
# Procedure: as §1
# [3] = marker d (undefined, shared with AZT^d)
# [4] = marker e (undefined, shared with AZT^e)
# [5] = marker c (undefined, shared with AZT^c)
# [6] = marker a (undefined, shared with AZT^a)
# [7] = marker b (undefined, shared with AZT^b)
smiles,measurement,setting,value
"CCc1c(C(=O)c2cc(C)cc(C)c2)n(CCC2=CCCC2)c(=O)[nH]c1=O [Example 35, 1-[2-(Cyclopent-1-en-1-yl)ethyl]-5-ethyl-6-(3,5-dimethylbenzoyl)-2,4-pyrimidinedione]",S.I.,[1]; [3],"9,958"
same,CD50,[2]; [3],28.58
"CCc1c(C(=O)c2cc(C)cc(C)c2)n(CCC2C=CCC2)c(=O)[nH]c1=O (centres unmarked) [Example 40, 1-{2-(Cyclopent-2-en-1-yl)ethyl]-5-ethyl-6-(3,5-dimethylbenzoyl)-2,4-pyrimidinedione]",S.I.,[1]; [4],"> 27,346"
same,CD50,[2]; [4],7.11
"CCc1c(C(=O)c2cc(C)cc(C)c2)n(CCC2CC=CC2)c(=O)[nH]c1=O [Example 36, 1-[2-(Cyclopent-3-en-1-yl)ethyl]-5-ethyl-6-(3,5-dimethylbenzoyl)-2,4-pyrimidinedione]",S.I.,[1]; [3],"30,294"
same,CD50,[2]; [3],10.30
"CCc1c(C(=O)c2cc(C)cc(C)c2)n(CC2CC2(CO)CO)c(=O)[nH]c1=O (centres unmarked) [Example 51, 1-[2-Bis(hydroxymethyl)cyclopropane-1-yl]methyl-5-ethyl-6-(3,5-dimethylbenzoyl)-2,4-pyrimidinedione]",S.I.,[1]; [5],"12,165"
same,CD50,[2]; [5],128.95
"Cc1cc(C)cc(Oc2c(C(C)C)c(=O)[nH]c(=O)n2CC2CC2(CO)CO)c1 (centres unmarked) [Example 54, 1-[2-Bis(hydroxymethyl)cyclopropane-1-yl]methyl-5-isopropyl-6-(3,5-dimethylphenoxy)-2,4-pyrimidinedione]",S.I.,[1]; [5],"3,004"
same,CD50,[2]; [5],7.69
"CCc1c(C(=O)c2cc(C)cc(C)c2)n(CCC2CCCC2)c(=O)[nH]c1=O [Example 44, 1-(2-Cyclopentyl)ethyl-5-ethyl-6-(3,5-dimethylbenzoyl)-2,4-pyrimidinedione]",S.I.,[1]; [4],"5,958"
same,CD50,[2]; [4],8.58
"CC(C)c1c(Sc2ccccc2)n(CC2CC2(CO)CO)c(=O)[nH]c1=O (centres unmarked) [Example 52, 1-[2-Bis(hydroxymethyl)cyclopropane-1-yl]methyl-5-isopropyl-6-phenylthio-2,4-pyrimidinedione]",S.I.,[1]; [5],"1,496"
same,CD50,[2]; [5],104.12
"Cc1cc(C)cc(Sc2c(C(C)C)c(=O)[nH]c(=O)n2CC2=CCC(CO)C2)c1 (centres unmarked) [Example 9, 1-[(4-Hydroxymethylcyclopent-1-en-1-yl)methyl]-5-isopropyl-6-(3,5-di-methylphenylthio)-2,4-pyrimidinedione]",S.I.,[1]; no run marker,"16,785"
same,CD50,[2]; no run marker,8.51
"CCc1c(Sc2ccccc2)n(CC2CC2(CO)CO)c(=O)[nH]c1=O (centres unmarked) [Example 48, 1-[2-Bis(hydroxymethyl)cyclopropane-1-yl]methyl-5-ethyl-6-phenylthio-2,4-pyrimidinedione]",S.I.,[1]; [5],923
same,CD50,[2]; [5],96.95
"CCc1c(Oc2cc(C)cc(C)c2)n(CC2=CCCC2CO)c(=O)[nH]c1=O (centres unmarked) [Example 19, 1-[(5-Hydroxymethylcyclopent-1-en-1-yl)methyl]-5-ethyl-6-(3,5-dimethyphenoxy)-2,4-pyrimidinedione]",S.I.,[1]; no run marker,"1,384"
same,CD50,[2]; no run marker,55.37
"Cc1cc(C)cc(C(=O)c2c(C(C)C)c(=O)[nH]c(=O)n2CC2CC=CC2)c1 [Example 17, 1-[(Cyclopent-3-en-1-yl)methyl]-5-isopropyl-6-(3,5-dimethylbenzoyl)-2,4-pyrimidinedione]",S.I.,[1]; [6],"3,615"
same,CD50,[2]; [6],19.16
"Cc1cc(C)cc(Oc2c(C(C)C)c(=O)[nH]c(=O)n2CC2CCCC2)c1 [Example 21, 1-(Cyclopentyl)methyl-5-isopropyl-6-(3,5-dimethylphenoxy)-2,4-pyrimidinedione]",S.I.,[1]; [7],"3,089"
same,CD50,[2]; [7],10.04
"Cc1cc(C)cc(Sc2c(C(C)C)c(=O)[nH]c(=O)n2CC2CCCC2)c1 [Example 20, 1-[(Cyclopentyl)methyl]-5-isopropyl-6-(3,5-dimethyphenylthio)-2,4-pyrimidinedione]",S.I.,[1]; [7],"24,264"
same,CD50,[2]; [7],11.38
"Cc1cc(C)cc(Oc2c(C(C)C)c(=O)[nH]c(=O)n2CCC2C=CCC2)c1 (centres unmarked) [Example 42, 1-[2-(Cyclopent-2-en-1-yl)ethyl]-5-isopropyl-6-(3,5-dimethylphenoxy)-2,4-pyrimidinedione]",S.I.,[1]; [4],"2,353"
same,CD50,[2]; [4],7.53
"CCc1c(Sc2cc(C)cc(C)c2)n(CC2CC2(CO)CO)c(=O)[nH]c1=O (centres unmarked) [Example 49, 1-[2-Bis(hydroxymethyl)cyclopropane-1-yl]methyl-5-ethyl-(3,5-dimethylphenylthio)-2,4-pyrimidinedione]",S.I.,[1]; [5],"18,271"
same,CD50,[2]; [5],21.56
"Cc1cc(C)cc(Oc2c(C(C)C)c(=O)[nH]c(=O)n2CC2CC=CC2)c1 [Example 15, 1-[(Cyclopent-3-en-1-yl)methyl]-5-isopropyl-6-(3,5-dimethylphenoxy)-2,4-pyrimidinedione]",S.I.,[1]; [6],"1,624"
same,CD50,[2]; [6],10.07
"CCc1c(Sc2cc(C)cc(C)c2)n(CC2=CCC(CO)C2)c(=O)[nH]c1=O (centres unmarked) [Example 7, 1-[(4-Hydroxymethylcyclopent-1-en-1-yl)methyl]-5-ethyl-6-(3,5-dimethylphenylthio)-2,4-pyrimidinedione]",S.I.,[1]; no run marker,"3,004"
same,CD50,[2]; no run marker,7.69
"CCc1c(Oc2cc(C)cc(C)c2)n(CC2CC=CC2)c(=O)[nH]c1=O [Example 14, 1-[(Cyclopent-3-en-1-yl)methyl]-5-ethyl-6-(3,5-dimethylphenoxy)-2,4-pyrimidinedione]",S.I.,[1]; [7],"400,238"
same,CD50,[2]; [7],16.81
"Cc1cn([C@H]2C[C@H](N=[N+]=[N-])[C@@H](CO)O2)c(=O)[nH]c1=O [AZT, reference compound]",S.I.,[1]; [6],"5,825"
same,S.I.,[1]; [7],"1,123"
same,S.I.,[1]; [5],83
same,S.I.,[1]; [3],"5,500"
same,S.I.,[1]; [4],"3,172"
same,S.I.,[1]; no run marker,"2,633"
same,CD50,[2]; [6],1.13
same,CD50,[2]; [7],0.73
same,CD50,[2]; [5],0.057
same,CD50,[2]; [3],2.75
same,CD50,[2]; [4],1.84
same,CD50,[2]; no run marker,1.58
"Cc1cc(C)cc(Sc2c(C(C)C)c(=O)[nH]c(=O)n2CC2CC2(CO)CO)c1 (centres unmarked) [Example 53, 1-[2-Bis(hydroxymethyl)cyclopropane-1-yl]methyl-5-isopropyl-6-(3,5-dimethylphenylthio)-2,4-pyrimidinedione]",S.I.,[1]; [5],"7,199"
same,CD50,[2]; [5],13.39
"Cc1cc(C)cc(C(=O)c2c(C(C)C)c(=O)[nH]c(=O)n2CC2CC2(CO)CO)c1 (centres unmarked) [Example 55, 1-[2-Bis(hydroxymethyl)cyclopropane-1-yl]methyl-5-isopropyl-6-(3,5-dimethylbenzoyl)-2,4-pyrimidinedione]",S.I.,[1]; [5],"21,806"
same,CD50,[2]; [5],131.71
"CCc1c(Sc2cc(C)cc(C)c2)n(CC2CC=CC2)c(=O)[nH]c1=O [Example 2, 1-[(Cyclopent-3-en-1-yl)methyl]-5-ethyl-6-(3,5-dimethylphenylthio)-2,4-pyrimidinedione]",S.I.,[1]; no run marker,"60,930"
same,CD50,[2]; no run marker,7.86
"CCc1c(C(=O)c2cc(C)cc(C)c2)n(CC2CC=CC2)c(=O)[nH]c1=O [Example 16, 1-[(Cyclopent-3-en-1-yl)methyl]-5-ethyl-6-(3,5-dimethylbenzoyl)-2,4-pyrimidinedione]",CD50,[2]; [5],1.52
"CCc1c(C(=O)c2cc(C)cc(C)c2)n(CC2CCCC2)c(=O)[nH]c1=O [Example 23, 1-(Cyclopentyl)methyl-5-ethyl-6-(3,5-dimethylbenzoyl)-2,4-pyrimidinedione]",S.I.,[1]; [3],"> 384,615"
same,CD50,[2]; [3],> 100
"Cc1cc(C)cc(C(=O)c2c(C(C)C)c(=O)[nH]c(=O)n2CC2CCCC2)c1 [Example 22, 1-(Cyclopentyl)methyl-5-isopropyl-6-(3,5-dimethylbenzoyl)-2,4-pyrimidinedione]",CD50,[2]; [7],9.97
"CCc1c(Oc2cc(C)cc(C)c2)n(CC2CC2(CO)CO)c(=O)[nH]c1=O (centres unmarked) [Example 50, 1-[2-Bis(hydroxymethyl)cyclopropane-1-yl]methyl-5-ethyl-6-(3,5-dimethylphenoxy)-2,4-pyrimidinedione]",S.I.,[1]; [5],"7,763"
same,CD50,[2]; [5],111.79
"CCc1c(Oc2cc(C)cc(C)c2)n(CC2=CCC(CO)C2)c(=O)[nH]c1=O (centres unmarked) [Example 18, 1-[(4-Hydroxymethylcyclopent-1-en-1-yl)methyl]-5-ethyl-6-(3,5-dimethyl-phenoxy)-2,4-pyrimidinedione]",S.I.,[1]; no run marker,"1,131"
same,CD50,[2]; no run marker,12.78
"Cc1cc(C)cc(Sc2c(C(C)C)c(=O)[nH]c(=O)n2CC2CC=CC2)c1 [Example 4, 1-[(Cyclopent-3-en-1-yl)methyl]-5-isopropyl-6-(3,5-dimethylphenylthio) -2,4-pyrimidinedione]",S.I.,[1]; [6],"2,111"
same,CD50,[2]; [6],11.40
"CCc1c(Sc2cc(C)cc(C)c2)n(CC2=CCC(CO)(CO)C2)c(=O)[nH]c1=O [Example 25, 1-{[4-Bis(hydroxymethyl)cyclopent-1-en-1-yl]methyl}-5-ethyl-6-(3,5-dimethyl-phenylthio)-2,4-pyrimidinedione]",S.I.,[1]; no run marker,"2,762"
same,CD50,[2]; no run marker,14.64
"Cc1cc(C)cc(C(=O)c2c(C(C)C)c(=O)[nH]c(=O)n2CCC2CC=CC2)c1 [Example 37, 1-[2-(Cyclopent-3-en-1-yl)ethyl]-5-isopropyl-6-(3,5-dimethylbenzoyl)-2,4-pyrimidinedione]",S.I.,[1]; [3],"13,377"
same,CD50,[2]; [3],9.23
